{"source": "patent US20110117012A1", "about": "“RADIOLABELED GALLIUM COMPLEXES, METHODS FOR SYNTHESIS AND USE FOR PET IMAGING OF EGFR EXPRESSION IN MALIGNANT TUMORS” (priority 2003, published 2011)", "key": {"A431 cells [1]": {"system": "A431 cells", "assay": "Cellular internalization by acid wash, A431 cells", "type": "cell-based, human", "from_the_text": "(§1) The human squamous carcinoma cell line A431 (ATCC, CLR 1555, Rocksville, Md., USA) and the malignant glioma cell line U343MGaC12:6 (Westermark B, Magnusson A, Heldin C H. Effect of epidermal growth factor on membrane motility and cell locomotion in cultures of human clonal glioma cells. J Neurosci Res. 1982; 8(2-3): 491-507) (from now on denoted U343) were used in all cell experiments. This A431 cell line is reported to express approximately 2×10^6 EGFR per cell, and the U343 cell line express approximately 5.5×10^5 EGFR per cell. […]\n(§2) Instead of trypsinising the cells, treatment with 0.5 ml ice-cold 0.1 M glycin-HCl buffer, pH 2.5 for 6 min at 0° C. was used to extract the membrane bound fraction of the conjugate. […] The remaining radioactivity, considered to be internalized radioactivity, was collected by treatment with 0.5 ml 1 M NaOH solution at 37° C. for about 60 min. […] The collected fractions were measured in an automated gamma counter.\n(§3) In this study, the degree of internalization was estimated by acid wash. Radioactivity, which was removed from cells by an acidic buffer was considered as membrane-bound, and the rest as internalized. […] More than 50% of the radioactivity was internalized at 30 min after the start of incubation in the case of glioma U343 cells."}, "U343 cells [2]": {"system": "U343 cells", "assay": "Cellular internalization by acid wash, U343 cells", "type": "cell-based, human", "from_the_text": "as §1, §2, §3"}, "A431 tumor xenografts [3]": {"system": "A431 tumor xenografts", "design": "species or system Balb/c nu/nu mice", "conditions": "mouse, in vivo, iv, 0.5 h", "procedure": "(§4) The in vivo studies were carried out in adult female Balb/c nu/nu mice (21-25 g) (Möllegård, Denmark) with tumor xenografts. All animals were handled according to the guidelines by the Swedish Animal Welfare Agency, and the experiments were approved by the local Ethics Committee for Animal Research. The mice were injected subcutaneously with A431 tumor cells (approximately 7 million cells per tumor in 100 μl cell culture medium) in both front legs. The tumors were allowed to grow for 12-13 days before the experiments were performed, and had then reached a weight of 0.1-0.8 g.\nIn order to estimate an influence of amount injected conjugate on uptake in tumors and normal tissues, a biodistribution study was performed. […] The mice were anesthetised by an intraperitoneal injection of a mixture of Rompun (1 mg/ml) and Ketalar (10 mg/ml), 0.2 ml per 10 g of animal weight, and killed by heart puncture. In addition to the tumors, blood, heart, pancreas, spleen, stomach, liver, kidneys, lungs, small and large intestine, muscle, bone and salivary gland were collected, weighed and measured in an automated gamma counter. The tails were also measured for radioactive content, in order to determine the accuracy of the injections. Organ values were calculated as percent of injected activity per g of organ (% IA/g)."}, "[4]": {"type": "physicochemical", "procedure": "Analytical liquid chromatography (LC) was performed using a HPLC system from Beckman (Fullerton, Calif., USA) consisting of a 126 pump, a 166 UV detector and a radiation detector coupled in series. Data acquisition and handling was performed using the Beckman System Gold Nouveau Chromatography Software Package. The column used was a Vydac RP 300 Å HPLC column (Vydac, USA) with the dimensions 150 mm×4.6 mm, 5 μm particle size. The applied gradient elution had the following parameters: A=10 mM TFA; B=70% acetonitrile (MeCN), 30% H2O, 10 mM TFA with UV-detection at 220 nm; flow was 1.2 mL/min; 0-2 min isocratic 20% B, 20-90% B linear gradient 8 min, 90-20% B linear gradient 2 min The quantity of ^68Ga-DOTA-hEGF and radio-impurities retained on the column could be obtained by measuring the activity of the sample injected on the column and the fractions collected from the outlet with a crystal scintillation counter. The overall loss on the system was 10%. The measured activity of the fractions of ^68Ga-DOTA-hEGF and hydrophilic radio-impurities were in agreement with the respective values obtained from the HPLC chromatograms. […]\nThe microwave-accelerated labeling of the conjugates (Scheme 1) was performed using a non-concentrated or a pre-concentrated generator ^68Ga-eluate. […] Pre-concentration of eluate allowed to obtain specific radioactivity of 28 MBq/nmol. […]"}, "A431 tumor xenografts [5]": {"system": "A431 tumor xenografts", "assay": "MicroPET imaging of tumor-bearing mice", "type": "in vivo", "procedure": "as §4\nImaging was performed on a microPET R4 scanner (Concorde Microsystems, Inc.), with a computer-controlled bed and 10 cm transaxial and 8 cm axial field of view (FOV). […] After completion of the study the animals were decapitated under anesthesia and blood, liver, and kidney samples were collected for radioactivity measurements.\nScatter correction, random counts and dead time correction were all incorporated into the reconstruction algorithm. Radiation attenuation in each animal was measured with two rotating rod sources containing ^68 Ge/^68Ga before tracer injection and the images were corrected for radiation attenuation. […] Pharmacokinetic curves, representing the radioactivity concentrations (percentage of injected dose per gram of tissue), versus time after injection were determined accordingly. […]"}, "U343 cells [6]": {"system": "U343 cells", "assay": "Cellular retention of radioactivity after interrupted incubation, U343 cells", "type": "cell-based, human", "conditions": "4 hours after interrupted incubation", "from_the_text": "as §1, with “cell. The cells were cultured in Ham's F10 medium (Biochrom Kg), supplemented with 10% fetal calf serum (Sigma), L-glutamine (2 mM) and PEST (penicillin 100 IU/ml and streptomycin 100 μg/ml) both from Biochrom Kg. During cell culture and cell experiments (unless otherwise stated) cells were grown at 37° C. in incubators with humidified air, equilibrated with 5% CO2.” for “cell.”\n(§5) After the incubation, the cells were washed thoroughly to eliminate unbound conjugate, and the incubation was then continued in fresh cell culture medium. After 0.5-4 h, the cells were trypsinized, counted and measured for radioactivity, as described above.\n(§6) An initial drop of radioactivity, which was most likely due to dissociation of membrane-bound conjugates, was followed by a relatively constant amount of cell-bound ^68Ga."}, "A431 cells [7]": {"system": "A431 cells", "assay": "Cellular retention of radioactivity after interrupted incubation, A431 cells", "type": "cell-based, human", "conditions": "4 hours after interrupted incubation", "from_the_text": "as §1, with “cell. The cells were cultured in Ham's F10 medium (Biochrom Kg), supplemented with 10% fetal calf serum (Sigma), L-glutamine (2 mM) and PEST (penicillin 100 IU/ml and streptomycin 100 μg/ml) both from Biochrom Kg. During cell culture and cell experiments (unless otherwise stated) cells were grown at 37° C. in incubators with humidified air, equilibrated with 5% CO2.” for “cell.”\nas §5, §6"}}, "note": "“Also recorded” adds a separate entry of the source. Read-outs that look alike come from different tables or passages of the source.", "data": [{"substance": "^68Ga-DOTA-EGF: recombinant human epidermal growth factor conjugated to the chelator DOTA (one to three DOTA) and labeled with 68Ga; PET tracer", "values": [{"measurement": "internalization rate", "setting": "A431 cells [1]", "result": "rapid process"}, {"measurement": "radioactivity internalized", "setting": "U343 cells [2]; 30 min after the start of incubation", "result": "More than 50%"}, {"measurement": "internalization rate", "setting": "U343 cells [2]; acid wash, compared to A431", "result": "faster"}, {"measurement": "radioactivity remaining in the circulation (blood)", "setting": "A431 tumor xenografts [3]; 0.016 nmol per animal", "result": "less than 1 % IA/g"}, {"measurement": "uptake in the A431 tumour xenograft", "setting": "A431 tumor xenografts [3]; 0.016 nmol per animal", "result": "1.51±0.16", "unit": "% IA/g"}, {"measurement": "radioactivity remaining in the circulation (blood)", "setting": "A431 tumor xenografts [3]; 0.16 nmol per animal", "result": "less than 1 % IA/g"}, {"measurement": "uptake in the A431 tumour xenograft", "setting": "A431 tumor xenografts [3]; 0.16 nmol per animal", "result": "2.69±0.29", "unit": "% IA/g"}, {"measurement": "stability in PBS", "setting": "[4]", "result": "stable"}, {"measurement": "organ distribution by microPET", "setting": "A431 tumor xenografts [5]; 0.16 nmol injected, liver, kidneys, tumours, pharmacokinetic curves", "result": "Prominent uptake was observed in the liver and kidneys; also recorded: rapid distribution"}, {"measurement": "tumor visualization by microPET", "setting": "A431 tumor xenografts [5]; 30 min after administration of 2.0 MBq, right and left leg tumors", "result": "visible with clear contrast"}, {"measurement": "cell-associated radioactivity (retention)", "setting": "U343 cells [6]", "result": "more than 70%"}, {"measurement": "cell-associated radioactivity (retention)", "setting": "A431 cells [7]", "result": "more than 70%"}]}]}
